Assay results published in patent US9974290B2, “Animal model and method for studying gene-gene interactions” (UNIVERSITY OF SOUTH FLORIDA, priority 2015, dated 2018).

Tested on: Raji B cells
Assay: Apoptosis assay in Raji B cells treated with PS-341
Type: cell-based
Details: Raji B cells treated with PS-341 (FIG. 11B); effect can be rescued by LRBA knockdown
Experimental: FIGS. 2A, 2B, 2C-1, 2C-2, 2D, and 2E. LRBA interacts with NFkB and regulates cell survival. FIG. 2A: LRBA was stably knocked down in Raji cells by the short hairpin (sh) RNA technique in Raji B cells. NFkB activity was measured by an NFkB luciferase reporter. FIG. 2B: The phospho-NFkB (pS529) levels were detected by Phosflow Kit. FIGS. 2C-1 and 2C-2: TNFα (FIG. 2C-1) and IL10 (FIG. 2C-2) proteins levels were measured by the human Th1/Th2 cytokine bead-array kit. FIG. 2D: Apoptosis assay. Raji B cells were treated with various stress stimuli including proteasome inhibitors, serum starvation and bacterial infection. Apoptosis was detected by Annexin V-PE and 7-AAD. FIG. 2E: LRBA (−/−) ES cell clones were obtained by culturing LRBA (+/−) ES cells with 1 mg/ml G418 for ˜two weeks. Equal number of ES cells was plated into each well of a 96-well plate. The average cell numbers were counted from three wells at each time point.
FIGS. 11A-11E. LRBA interacts with important genes in regulating apoptosis and proliferation. […] FIG. 11A: NFkB activity was measured by an NFkB luciferase reporter. The Phosphorylated (P−) NFkB (pS529) levels were detected by Phosflow Kit. […] The average cell numbers were counted from three wells at each time point. […] Cell lysates from WT or LRBA KD stable Raji cells were analyzed by Western blot. Protein levels were quantified with Quantity One software. […]

`CC(C)C[C@H](NC(=O)[C@H](Cc1ccccc1)NC(=O)c1cnccn1)B(O)O` [PS-341] was tested, and the apoptosis was “promotes apoptosis”.
